Experimental data published in ChEMBL document CHEMBL4715760, “Balancing potency, metabolic stability and permeability in pyrrolopyrimidine-based EGFR inhibitors” (Eur J Med Chem, 2016).

Assays:
[1] = biological target: Macrophage colony-stimulating factor 1 receptor (Homo sapiens) (UniProt P07333); test: Inhibition of recombinant human His-tagged CSF1R (538 to 910 residues) expressed in baculovirus expression system at 500 nM using Tyr 01 peptide as substrate incubated for 1 hr in presence of ATP at its Km concentration by Z'-LYTE assay relative to control
[2] = biological target: T1, Ephrin type-A receptor 1 (Homo sapiens) (UniProt P21709); test: Inhibition of recombinant human GST-tagged EPHA1 (568 to 976 residues) expressed in baculovirus expression system at 500 nM using Tyr 02 peptide as substrate incubated for 1 hr in presence of ATP at its Km concentration by Z'-LYTE assay relative to control
T1 sequence (whole entry): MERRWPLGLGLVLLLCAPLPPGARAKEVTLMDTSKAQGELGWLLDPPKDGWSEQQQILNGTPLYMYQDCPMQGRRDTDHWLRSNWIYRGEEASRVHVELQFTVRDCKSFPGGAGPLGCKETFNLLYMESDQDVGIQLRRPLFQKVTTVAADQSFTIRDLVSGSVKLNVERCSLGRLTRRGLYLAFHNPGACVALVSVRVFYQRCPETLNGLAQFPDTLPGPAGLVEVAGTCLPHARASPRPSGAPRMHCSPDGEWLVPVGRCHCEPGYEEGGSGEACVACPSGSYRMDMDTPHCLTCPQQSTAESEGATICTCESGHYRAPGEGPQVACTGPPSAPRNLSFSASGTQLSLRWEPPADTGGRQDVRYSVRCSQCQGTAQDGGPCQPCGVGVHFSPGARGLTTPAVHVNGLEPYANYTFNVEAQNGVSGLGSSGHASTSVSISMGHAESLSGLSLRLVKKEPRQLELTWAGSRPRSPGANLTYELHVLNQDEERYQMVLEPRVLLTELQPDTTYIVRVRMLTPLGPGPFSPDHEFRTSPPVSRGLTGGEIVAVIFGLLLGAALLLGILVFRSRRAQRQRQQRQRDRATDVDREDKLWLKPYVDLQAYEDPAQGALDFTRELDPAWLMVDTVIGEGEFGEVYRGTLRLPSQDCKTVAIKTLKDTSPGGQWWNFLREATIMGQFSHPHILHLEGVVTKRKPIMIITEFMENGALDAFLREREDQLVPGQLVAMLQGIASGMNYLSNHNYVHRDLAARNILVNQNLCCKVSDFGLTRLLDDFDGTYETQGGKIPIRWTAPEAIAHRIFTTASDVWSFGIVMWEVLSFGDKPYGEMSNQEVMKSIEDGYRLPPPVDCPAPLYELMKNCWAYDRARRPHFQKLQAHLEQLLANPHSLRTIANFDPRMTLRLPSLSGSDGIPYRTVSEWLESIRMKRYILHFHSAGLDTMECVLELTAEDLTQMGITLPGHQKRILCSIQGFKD

[3] = biological target: Tyrosine-protein kinase JAK2 (Homo sapiens) (UniProt O60674); test: Inhibition of human recombinant GST tagged JAK2 catalytic domain expressed in baculovirus expression system at 500 nM using Tyr 06 as substrate incubated for 1 hr in presence of ATP at its Km concentration by Z'-LYTE assay relative to control
Chain of Tyrosine-protein kinase JAK2 (Homo sapiens) (O60674 whole entry, the tested form may be a part): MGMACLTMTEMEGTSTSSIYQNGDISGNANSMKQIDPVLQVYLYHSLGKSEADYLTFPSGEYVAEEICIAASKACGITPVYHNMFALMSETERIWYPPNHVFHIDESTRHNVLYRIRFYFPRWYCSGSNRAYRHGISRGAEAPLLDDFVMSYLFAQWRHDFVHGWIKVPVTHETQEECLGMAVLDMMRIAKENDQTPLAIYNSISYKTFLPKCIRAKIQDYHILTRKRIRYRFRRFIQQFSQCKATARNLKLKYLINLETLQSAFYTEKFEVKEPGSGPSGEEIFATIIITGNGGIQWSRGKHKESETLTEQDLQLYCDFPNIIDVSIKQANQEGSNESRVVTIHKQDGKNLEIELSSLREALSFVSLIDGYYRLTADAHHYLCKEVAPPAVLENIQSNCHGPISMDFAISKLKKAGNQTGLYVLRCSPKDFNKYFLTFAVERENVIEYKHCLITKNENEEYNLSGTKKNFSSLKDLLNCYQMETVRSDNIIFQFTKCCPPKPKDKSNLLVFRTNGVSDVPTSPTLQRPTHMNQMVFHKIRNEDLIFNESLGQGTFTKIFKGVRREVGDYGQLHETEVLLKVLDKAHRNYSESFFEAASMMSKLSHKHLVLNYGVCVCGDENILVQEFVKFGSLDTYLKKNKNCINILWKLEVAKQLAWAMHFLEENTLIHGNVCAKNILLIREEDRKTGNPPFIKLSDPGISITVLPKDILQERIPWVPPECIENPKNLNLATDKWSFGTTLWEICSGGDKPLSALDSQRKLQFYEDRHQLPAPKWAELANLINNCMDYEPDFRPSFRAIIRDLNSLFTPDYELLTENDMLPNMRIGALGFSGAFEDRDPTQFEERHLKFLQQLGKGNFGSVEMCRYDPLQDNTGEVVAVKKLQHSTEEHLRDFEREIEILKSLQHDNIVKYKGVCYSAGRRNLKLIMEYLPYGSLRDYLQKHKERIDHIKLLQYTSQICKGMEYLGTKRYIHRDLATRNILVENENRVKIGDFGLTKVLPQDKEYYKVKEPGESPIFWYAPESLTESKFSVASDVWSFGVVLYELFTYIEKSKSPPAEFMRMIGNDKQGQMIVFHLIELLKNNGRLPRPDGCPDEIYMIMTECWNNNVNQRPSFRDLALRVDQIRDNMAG

[4] = biological target: Vascular endothelial growth factor receptor 2 (Homo sapiens) (UniProt P35968); test: Inhibition of recombinant human His-tagged KDR (789 to 1356 residues) expressed in baculovirus expression system at 500 nM using Tyr 01 as substrate incubated for 1 hr in presence of ATP at its Km concentration by Z'-LYTE assay relative to control
Chain of Vascular endothelial growth factor receptor 2 (Homo sapiens) (P35968 whole entry, the tested form may be a part): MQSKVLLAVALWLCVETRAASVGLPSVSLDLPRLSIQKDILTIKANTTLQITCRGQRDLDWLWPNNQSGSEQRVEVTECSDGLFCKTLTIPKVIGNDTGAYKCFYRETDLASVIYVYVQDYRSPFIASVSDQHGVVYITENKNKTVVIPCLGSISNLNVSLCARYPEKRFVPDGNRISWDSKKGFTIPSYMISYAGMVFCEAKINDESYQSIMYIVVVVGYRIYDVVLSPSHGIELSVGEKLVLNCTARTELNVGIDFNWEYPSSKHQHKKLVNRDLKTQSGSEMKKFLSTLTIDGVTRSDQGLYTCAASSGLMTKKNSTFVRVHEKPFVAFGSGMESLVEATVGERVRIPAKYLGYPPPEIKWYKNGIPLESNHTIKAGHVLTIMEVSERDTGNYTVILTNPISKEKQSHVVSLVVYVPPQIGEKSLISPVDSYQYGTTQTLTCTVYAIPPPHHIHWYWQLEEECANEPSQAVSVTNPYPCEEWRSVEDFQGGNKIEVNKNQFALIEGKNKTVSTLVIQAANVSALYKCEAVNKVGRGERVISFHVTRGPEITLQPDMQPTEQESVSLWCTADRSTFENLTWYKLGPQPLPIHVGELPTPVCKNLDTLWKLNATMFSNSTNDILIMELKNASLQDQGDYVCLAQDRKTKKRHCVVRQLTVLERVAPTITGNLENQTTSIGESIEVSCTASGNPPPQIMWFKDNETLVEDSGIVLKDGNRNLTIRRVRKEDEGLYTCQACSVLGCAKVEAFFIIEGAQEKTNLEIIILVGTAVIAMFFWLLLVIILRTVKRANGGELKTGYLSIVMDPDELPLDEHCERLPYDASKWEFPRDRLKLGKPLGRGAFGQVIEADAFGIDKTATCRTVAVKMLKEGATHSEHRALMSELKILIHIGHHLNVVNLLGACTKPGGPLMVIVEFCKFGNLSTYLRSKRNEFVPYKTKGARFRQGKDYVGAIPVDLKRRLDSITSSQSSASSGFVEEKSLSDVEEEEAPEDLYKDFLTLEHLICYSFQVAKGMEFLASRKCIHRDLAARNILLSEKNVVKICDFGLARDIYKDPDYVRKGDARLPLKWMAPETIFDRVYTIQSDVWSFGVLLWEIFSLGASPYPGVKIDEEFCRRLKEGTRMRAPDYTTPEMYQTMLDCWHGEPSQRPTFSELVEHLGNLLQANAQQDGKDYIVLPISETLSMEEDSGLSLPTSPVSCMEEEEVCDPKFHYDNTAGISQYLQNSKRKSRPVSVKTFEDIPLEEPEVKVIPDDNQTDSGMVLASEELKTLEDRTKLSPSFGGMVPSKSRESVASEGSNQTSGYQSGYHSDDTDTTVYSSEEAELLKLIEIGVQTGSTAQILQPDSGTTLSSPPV

[5] = biological target: Tyrosine-protein kinase Lyn (Homo sapiens) (UniProt P07948); test: Inhibition of recombinant full length human His-tagged LYN-B expressed in baculovirus expression system at 500 nM using Tyr 02 as substrate incubated for 1 hr in presence of ATP at its Km concentration by Z'-LYTE assay relative to contro
[6] = biological target: Mitogen-activated protein kinase 1 (Homo sapiens) (UniProt P28482); test: Inhibition of recombinant full length GST-tagged human MAPK1 expressed in Escherichia coli at 500 nM using Ser/Thr 03 as substrate incubated for 1 hr in presence of 100 uM ATP by Z'-LYTE assay relative to control
Chain of Mitogen-activated protein kinase 1 (Homo sapiens) (P28482 whole entry): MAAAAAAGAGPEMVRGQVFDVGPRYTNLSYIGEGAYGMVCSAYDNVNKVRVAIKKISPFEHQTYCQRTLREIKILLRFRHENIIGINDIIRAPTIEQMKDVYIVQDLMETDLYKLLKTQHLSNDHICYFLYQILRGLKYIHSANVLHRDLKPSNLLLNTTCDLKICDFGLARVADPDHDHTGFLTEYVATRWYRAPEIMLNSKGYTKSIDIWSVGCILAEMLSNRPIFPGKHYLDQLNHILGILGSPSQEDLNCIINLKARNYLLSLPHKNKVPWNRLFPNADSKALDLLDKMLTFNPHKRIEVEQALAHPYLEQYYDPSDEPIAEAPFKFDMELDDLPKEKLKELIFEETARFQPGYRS

[7] = biological target: Mitogen-activated protein kinase 14 (Homo sapiens) (UniProt Q16539); test: Inhibition of recombinant human GST-tagged full length MAPK14 expressed in Escherichia coli expression system at 500 nM using Ser/Thr 04 as substrate incubated for 1 hr in presence of ATP at its Km concentration by Z'-LYTE assay relative to control
Chain of Mitogen-activated protein kinase 14 (Homo sapiens) (Q16539 whole entry): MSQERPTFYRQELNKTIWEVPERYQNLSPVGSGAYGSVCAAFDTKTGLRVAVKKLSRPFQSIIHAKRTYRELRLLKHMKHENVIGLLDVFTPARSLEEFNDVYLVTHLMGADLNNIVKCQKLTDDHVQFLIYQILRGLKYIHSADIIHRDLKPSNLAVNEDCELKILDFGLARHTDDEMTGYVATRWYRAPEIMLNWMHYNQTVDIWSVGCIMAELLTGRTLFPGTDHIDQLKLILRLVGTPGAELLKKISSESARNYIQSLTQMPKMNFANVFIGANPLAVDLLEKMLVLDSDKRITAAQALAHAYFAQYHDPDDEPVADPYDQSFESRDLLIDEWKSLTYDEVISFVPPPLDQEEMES

[8] = biological target: Protein kinase C alpha type (Homo sapiens) (UniProt P17252); test: Inhibition of human full length GST-tagged PRKCA expressed in insect cells at 500 nM using Ser/Thr 07 as substrate incubated for 1 hr in presence of ATP at its Km concentration by Z'-LYTE assay relative to control
[9] = biological target: Proto-oncogene tyrosine-protein kinase Src (Homo sapiens) (UniProt P12931); test: Inhibition of recombinant human His-tagged full length SRC expressed in baculovirus expression system at 500 nM using Tyr 02 as substrate incubated for 1 hr in presence of ATP at its Km concentration by Z'-LYTE assay relative to control
[10] = biological target: T2, Testis-specific serine/threonine-protein kinase 2 (Homo sapiens) (UniProt Q96PF2); test: Inhibition of recombinant full length human His-tagged STK22B expressed in baculovirus expression system at 500 nM using Ser/Thr 04 as substrate incubated for 1 hr in presence of ATP at its Km concentration by Z'-LYTE assay relative to control
T2 sequence (whole entry): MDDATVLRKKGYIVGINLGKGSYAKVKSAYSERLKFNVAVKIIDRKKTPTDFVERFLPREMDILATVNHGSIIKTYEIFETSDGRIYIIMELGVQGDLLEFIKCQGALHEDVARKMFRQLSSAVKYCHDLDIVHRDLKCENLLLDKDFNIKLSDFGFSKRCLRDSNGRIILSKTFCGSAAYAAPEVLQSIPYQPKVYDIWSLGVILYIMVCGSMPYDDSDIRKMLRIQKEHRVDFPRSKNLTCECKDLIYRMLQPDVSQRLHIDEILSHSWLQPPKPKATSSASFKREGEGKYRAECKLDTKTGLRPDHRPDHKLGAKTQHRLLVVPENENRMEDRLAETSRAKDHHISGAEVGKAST

[11] = biological target: Angiopoietin-1 receptor (Homo sapiens) (UniProt Q02763); test: Inhibition of recombinant human GST-tagged TEK (817 to 1101 residues) expressed in baculovirus expression system at 500 nM using Tyr 05 as substrate incubated for 1 hr in presence of ATP at its Km concentration by Z'-LYTE assay relative to control
[12] = biological target: Epidermal growth factor receptor (Homo sapiens, UniProt P00533); conditions: dose 100.0 nM
Chain of Epidermal growth factor receptor (P00533 whole entry): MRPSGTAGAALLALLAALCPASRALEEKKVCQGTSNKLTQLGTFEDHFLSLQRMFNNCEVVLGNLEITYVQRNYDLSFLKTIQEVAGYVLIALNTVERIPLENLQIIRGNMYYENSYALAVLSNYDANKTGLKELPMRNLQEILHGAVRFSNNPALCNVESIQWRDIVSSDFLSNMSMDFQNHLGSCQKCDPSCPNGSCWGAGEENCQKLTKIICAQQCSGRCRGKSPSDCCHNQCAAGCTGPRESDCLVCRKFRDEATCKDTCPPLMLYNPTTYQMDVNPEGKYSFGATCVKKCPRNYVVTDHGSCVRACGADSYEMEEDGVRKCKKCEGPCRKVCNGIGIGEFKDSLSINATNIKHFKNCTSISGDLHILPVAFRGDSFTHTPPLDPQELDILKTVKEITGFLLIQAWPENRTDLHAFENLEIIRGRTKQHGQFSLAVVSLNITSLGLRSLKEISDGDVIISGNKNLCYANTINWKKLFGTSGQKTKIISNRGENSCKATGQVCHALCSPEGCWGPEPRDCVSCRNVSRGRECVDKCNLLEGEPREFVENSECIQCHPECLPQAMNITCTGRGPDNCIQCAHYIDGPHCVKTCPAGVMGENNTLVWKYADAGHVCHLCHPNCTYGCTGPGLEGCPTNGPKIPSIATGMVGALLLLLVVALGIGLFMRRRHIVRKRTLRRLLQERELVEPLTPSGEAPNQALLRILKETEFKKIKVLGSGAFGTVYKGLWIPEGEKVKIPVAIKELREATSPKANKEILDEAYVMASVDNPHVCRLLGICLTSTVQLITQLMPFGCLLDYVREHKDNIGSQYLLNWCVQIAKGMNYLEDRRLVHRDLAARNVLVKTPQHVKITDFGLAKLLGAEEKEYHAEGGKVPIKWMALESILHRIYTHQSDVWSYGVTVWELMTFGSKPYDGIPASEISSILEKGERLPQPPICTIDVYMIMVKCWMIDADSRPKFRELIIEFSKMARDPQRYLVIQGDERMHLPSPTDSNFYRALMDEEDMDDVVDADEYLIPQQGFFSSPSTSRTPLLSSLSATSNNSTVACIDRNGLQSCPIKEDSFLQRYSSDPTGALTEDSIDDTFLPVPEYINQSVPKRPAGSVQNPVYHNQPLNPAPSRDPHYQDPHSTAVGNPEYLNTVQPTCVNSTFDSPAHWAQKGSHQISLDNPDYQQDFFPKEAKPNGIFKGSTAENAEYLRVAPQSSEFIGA
Description: Inhibition of human EGFR at 100 nM using poly[Glu:Tyr] (4:1) as substrate in presence of [gamma33P]ATP by radiometric HotSpot assay relative to control

inhibition [1] [%] | inhibition [2] [%] | inhibition [3] [%] | inhibition [4] [%] | inhibition [5] [%] | inhibition [6] [%] | inhibition [7] [%] | inhibition [8] [%] | inhibition [9] [%] | inhibition [10] [%] | inhibition [11] [%] | inhibition ([12]; tested as the 2H-labelled form) [%] | inhibition [12] [%] | Compound
79 | 15 | 11 | 15 | 64 | 1 | 24 | 15 | 59 | -2 | 0 | 99 | – | COc1ccccc1-c1cc2c(N[C@H](CO)c3ccccc3)ncnc2[nH]1
– | – | – | – | – | 7 | – | – | – | – | – | – | – | C#Cc1cccc(Nc2ncnc3cc(OCCOC)c(OCCOC)cc23)c1 [ERLOTINIB]
86 | 48 | 5 | 53 | 68 | – | 20 | – | 76 | -6 | – | – | 99 | CN(C)CCNCc1ccc(-c2cc3c(N[C@H](CO)c4ccccc4)ncnc3[nH]2)cc1F
82 | 13 | 11 | 9 | 44 | 1 | 10 | 1 | 40 | 2 | – | – | 98 | CCOc1ccccc1-c1cc2c(N[C@H](CO)c3ccccc3)ncnc2[nH]1
88 | 19 | 34 | 28 | 60 | 1 | 19 | 17 | 59 | -3 | 1 | – | – | OC[C@@H](Nc1ncnc2[nH]c(-c3ccccc3)cc12)c1ccccc1
74 | 13 | -1 | 0 | 49 | 5 | 14 | -9 | 25 | 7 | -10 | – | 99 | OCC[C@@H](Nc1ncnc2[nH]c(-c3ccccc3)cc12)c1ccccc1
